Measurements from paper PMC11858854, “In Vitro and In Vivo Assessment of Pharmacokinetic Profile of Peramivir in the Context of Inhalation Therapy” (Pharmaceuticals, 2025).

How the values were obtained:
human OCT2 = target: T1, human OCT2 (Homo sapiens, UniProt O15244); assay: Uptake study, HEK293 cells overexpressing OCT2; type: in vitro ADME
T1 construct: host or cells: HEK293 (HEK293-OCT2); control HEK293-MOCK
T1 sequence (O15244 1-555): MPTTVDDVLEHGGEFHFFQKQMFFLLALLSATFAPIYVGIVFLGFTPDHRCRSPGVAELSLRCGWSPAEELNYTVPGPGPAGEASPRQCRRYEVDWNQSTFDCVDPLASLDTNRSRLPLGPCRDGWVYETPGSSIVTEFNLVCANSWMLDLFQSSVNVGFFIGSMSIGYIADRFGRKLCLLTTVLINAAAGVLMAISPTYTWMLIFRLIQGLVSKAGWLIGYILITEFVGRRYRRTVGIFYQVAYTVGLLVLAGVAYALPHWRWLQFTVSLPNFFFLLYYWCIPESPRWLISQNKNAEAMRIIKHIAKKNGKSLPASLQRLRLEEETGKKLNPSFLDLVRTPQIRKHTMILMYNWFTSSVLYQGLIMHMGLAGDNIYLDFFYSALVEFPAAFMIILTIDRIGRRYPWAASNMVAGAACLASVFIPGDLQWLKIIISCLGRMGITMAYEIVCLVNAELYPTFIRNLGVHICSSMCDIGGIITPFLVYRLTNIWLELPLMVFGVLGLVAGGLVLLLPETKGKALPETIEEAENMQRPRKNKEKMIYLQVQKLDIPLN
Method: All cells (HEK293-MOCK, HEK293-OCT1, HEK293-OCT2, MDCK-MOCK, MDCK-OCTN1, and MDCK-OCTN2) were cultured in DMEM medium supplemented with 10% FBS and PS (100 U/mL), at 37 °C in a humidified 5% CO2 incubator. Cells were seeded on 24-well plates at a density of 1 × 10^4 cells/well. For the uptake assay, the DMEM media were removed, and the cells were washed with pre-warmed Hank’s buffer three times (1 mL/well). Subsequent addition of inhibitor-free/inhibitor-containing buffer was pre-incubated for 30 min at 37 °C prior to the initiation of the uptake experiment. After the pre-incubating buffer was removed, 200 μL of pre-warmed test drugs solution (Hank’s buffer containing 10 µM and 50 µM peramivir) or a mixture of test drugs and inhibitor was added into each well, and the plates were incubated at 37 °C for 5 min. At the end of incubation, cells were washed and lysed as described above. The cell lysate was collected and stored at −40 °C for LC-MS/MS analysis and protein measurement. The negative control (MOCK cells) and positive control were included simultaneously.

[1] = Pharmacokinetics study in rats (i.v. and tracheal nebulization, plasma); type: in vivo, rat; details: for AUC(0–t) / AUC(0–t)/D / AUC(0–∞) / Cmax or C0 / Cmax/D / MRT(0–t) / MRT(0–∞) / T1/2 / Tmax / Cl / Vss / Vz: rat plasma, Mean ± SD, n = 6
Method: Pharmacokinetic studies were performed on rats to examine the effects of two distinct routes of administration: intravenous (i.v.) and tracheal nebulization (i.t.). The two administration routes were established to provide different doses, with six SD rats randomly assigned and weighed for each route.
The intravenous group consisted of rats that were randomly allocated into two subgroups, receiving dosages of 3 mg/kg and 6 mg/kg, respectively. The i.t. group consisted of rats that were randomly allocated into four groups receiving doses of 0.3 mg/kg, 1 mg/kg, 3 mg/kg, and 6 mg/kg. Prior to and at 0.033, 0.083, 0.25, 0.5, 1, 2, 4, 6, 8, 12, and 24 h post-administration, about 200 μL of blood was obtained via jugular vein catheterization and transferred to an EP tube containing heparin. Following centrifugation for 10 min at 5000× g, the plasma was isolated and preserved in a refrigerator at −40 °C until analysis.
Noncompartmental PK parameter estimates were determined from individual concentration-time data, using Phoenix WinNonlin, version 8.1 (Certara USA, Princeton, NJ, USA). And the linear relationship between AUC(0–t) and the corresponding dose was analyzed. t tests were performed on pharmacokinetic parameters under different dosing regimens to analyse the differences in drug exposure in rats.

[2] = parameters: method as in PMID 15196586; details: cited from earlier work

In the case of `CCC(CC)[C@H](NC(C)=O)[C@@H]1[C@H](O)[C@@H](C(=O)O)C[C@H]1N=C(N)N` [Peramivir], the OCT2 substrate status (human OCT2; HEK293-OCT2) is reported as “does not act as a substrate”, the “transporter-mediated uptake ratio (UR)” value (human OCT2; HEK293-OCT2, 50 μM) is reported as less than 1 and the “inhibition ratio (IR)” value (human OCT2; HEK293-OCT2, 50 μM, inhibitor verapamil (200 μM)) is reported as “exceeding 98.51%”. The “AUC(0–t)” value ([1]; i.t. 0.3 mg/kg) was 405.17 ± 56.59 ng·h/mL, the “AUC(0–t)/D” value ([1]; i.t. 0.3 mg/kg) was 1350.57 ± 188.64 kg·ng·h/mL/mg and the “AUC(0–∞)” value ([1]; i.t. 0.3 mg/kg) was 407.71 ± 56.59 ng·h/mL. The “Cmax or C0” value ([1]; i.t. 0.3 mg/kg) was 204.67 ± 80.82 ng/mL, the Cmax/D ([1]; i.t. 0.3 mg/kg) was 682.22 ± 269.38 kg·ng/mL/mg and the “MRT(0–t)” value ([1]; i.t. 0.3 mg/kg) was 1.62 ± 0.31 h. The “MRT(0–∞)” value ([1]; i.t. 0.3 mg/kg) was 1.67 ± 0.33 h, the T1/2 ([1]; i.t. 0.3 mg/kg) was 1.07 ± 0.22 h and the Tmax ([1]; i.t. 0.3 mg/kg) was 0.37 ± 0.38 h. For the same compound, the “AUC(0–t)” value ([1]; i.t. 1 mg/kg) was 1279.25 ± 93.59 ng·h/mL, the “AUC(0–t)/D” value ([1]; i.t. 1 mg/kg) was 1279.25 ± 93.59 kg·ng·h/mL/mg and the “AUC(0–∞)” value ([1]; i.t. 1 mg/kg) was 1291.03 ± 92.89 ng·h/mL. The “Cmax or C0” value ([1]; i.t. 1 mg/kg) was 544.17 ± 215.23 ng/mL, the Cmax/D ([1]; i.t. 1 mg/kg) was 544.17 ± 215.23 kg·ng/mL/mg and the “MRT(0–t)” value ([1]; i.t. 1 mg/kg) was 2.08 ± 0.69 h. For the same compound, the “MRT(0–∞)” value ([1]; i.t. 1 mg/kg) was 2.32 ± 1.07 h, the T1/2 ([1]; i.t. 1 mg/kg) was 4.10 ± 1.69 h and the Tmax ([1]; i.t. 1 mg/kg) was 0.67 ± 0.40 h. For the same compound, the “AUC(0–t)” value ([1]; i.t. 3 mg/kg) was 4364.35 ± 583.02 ng·h/mL, the “AUC(0–t)/D” value ([1]; i.t. 3 mg/kg) was 1454.78 ± 194.34 kg·ng·h/mL/mg and the “AUC(0–∞)” value ([1]; i.t. 3 mg/kg) was 4673.22 ± 567.78 ng·h/mL. For the same compound, the “Cmax or C0” value ([1]; i.t. 3 mg/kg) was 2303.33 ± 1523.96 ng/mL, the Cmax/D ([1]; i.t. 3 mg/kg) was 767.78 ± 507.99 kg·ng/mL/mg and the “MRT(0–t)” value ([1]; i.t. 3 mg/kg) was 3.15 ± 0.66 h. The “MRT(0–∞)” value ([1]; i.t. 3 mg/kg) was 8.26 ± 4.04 h, the T1/2 ([1]; i.t. 3 mg/kg) was 27.20 ± 9.67 h and the Tmax ([1]; i.t. 3 mg/kg) was 0.29 ± 0.36 h. The “AUC(0–t)” value ([1]; i.t. 6 mg/kg) was 8479.33 ± 883.87 ng·h/mL, the “AUC(0–t)/D” value ([1]; i.t. 6 mg/kg) was 1413.22 ± 147.31 kg·ng·h/mL/mg and the “AUC(0–∞)” value ([1]; i.t. 6 mg/kg) was 8852.22 ± 897.97 ng·h/mL. The “Cmax or C0” value ([1]; i.t. 6 mg/kg) was 3866.00 ± 2454.21 ng/mL, the Cmax/D ([1]; i.t. 6 mg/kg) was 644.33 ± 409.04 kg·ng/mL/mg and the “MRT(0–t)” value ([1]; i.t. 6 mg/kg) was 3.41 ± 1.08 h. The “MRT(0–∞)” value ([1]; i.t. 6 mg/kg) was 5.70 ± 1.84 h, the T1/2 ([1]; i.t. 6 mg/kg) was 17.73 ± 2.85 h and the Tmax ([1]; i.t. 6 mg/kg) was 0.29 ± 0.39 h. For the same compound, the “AUC(0–t)” value ([1]; i.v. 3 mg/kg) was 3765.02 ± 247.43 ng·h/mL, the “AUC(0–t)/D” value ([1]; i.v. 3 mg/kg) was 1255.00 ± 82.48 kg·ng·h/mL/mg and the “AUC(0–∞)” value ([1]; i.v. 3 mg/kg) was 3773.97 ± 245.49 ng·h/mL. The Cl ([1]; i.v. 3 mg/kg) was 13.296 ± 0.8863 mL/min/kg, the “Cmax or C0” value ([1]; i.v. 3 mg/kg) was 12,705.55 ± 1264.79 ng/mL and the “MRT(0–t)” value ([1]; i.v. 3 mg/kg) was 0.59 ± 0.06 h. For the same compound, the “MRT(0–∞)” value ([1]; i.v. 3 mg/kg) was 0.62 ± 0.06 h, the T1/2 ([1]; i.v. 3 mg/kg) was 2.11 ± 1.25 h and the Vss ([1]; i.v. 3 mg/kg) was 0.49811 ± 0.0581 L/kg. For the same compound, the Vz ([1]; i.v. 3 mg/kg) was 2.46265 ± 1.56916 L/kg, the “AUC(0–t)” value ([1]; i.v. 6 mg/kg) was 6048.04 ± 635.88 ng·h/mL and the “AUC(0–t)/D” value ([1]; i.v. 6 mg/kg) was 1008.01 ± 105.98 kg·ng·h/mL/mg. For the same compound, the “AUC(0–∞)” value ([1]; i.v. 6 mg/kg) was 6060.92 ± 637.85 ng·h/mL, the Cl ([1]; i.v. 6 mg/kg) was 16.654 ± 1.7818 mL/min/kg and the “Cmax or C0” value ([1]; i.v. 6 mg/kg) was 22,731.79 ± 5543.47 ng/mL. The “MRT(0–t)” value ([1]; i.v. 6 mg/kg) was 0.47 ± 0.06 h, the “MRT(0–∞)” value ([1]; i.v. 6 mg/kg) was 0.51 ± 0.07 h and the T1/2 ([1]; i.v. 6 mg/kg) was 3.07 ± 0.61 h. For the same compound, the Vss ([1]; i.v. 6 mg/kg) was 0.47267 ± 0.06358 L/kg, the Vz ([1]; i.v. 6 mg/kg) was 4.43299 ± 1.0131 L/kg and the “increase of mean residence time (MRT), inhaled vs intravenous” value ([1]; rat, equivalent doses) was “nearly tenfold”. For the same compound, the “time of peak plasma concentration” value ([1]; rat, following inhalation) was “approximately 30 min”, the bioavailability ([1]; rat, inhalation vs intravenous) was “exceeding 100%” and the “dose linearity of AUC and Cmax” value ([1]; rat, intratracheal, dose range 0.3 mg/kg to 6 mg/kg) was “linear pharmacokinetics”. For the same compound, the BDDCS category ([2]; high solubility/low metabolism) was “BDDCS-III” and the BCS category ([2]; high solubility/low permeability) was “BCS-III”.
